“Also recorded” adds a separate entry of the source.
What was measured:
[1] = test system: cultured hippocampal neurons; experiment: cLTP stimulation and quantification of cell-surface AMPARs in spines of cultured hippocampal neurons; type: cell-based, mouse; details: [AP5] = 50 µM, [MK-801] = 20 µM, [KN93] = 5 µM, [BFA] = 25 µM; 200 µM glycine 15 min
Experimental: After washing the cells with Hepes-based ACSF, 100 nM PFQX1(AF488) was added to the dish. The cells were scanned to obtain “basal state” images. Then, the cells were washed three times with cLTP stimulation buffer (Hepes-based ACSF except for MgCl2 supplemented with 20 μM bicuculline and 1 μM strychnine) to remove PFQX1(AF488). cLTP was induced by 200 μM glycine in cLTP stimulation buffer for 15 min at room temperature. After washing the cells with cLTP incubation buffer (Hepes-based ACSF supplemented with 20 μM bicuculline and 1 μM strychnine), the cells were incubated for 60 min at room temperature. Last, 100 nM PFQX1(AF488) was added to the dish, and images were scanned to obtain “after cLTP” images. Inhibitors (50 μM AP5 and 20 μM MK-801 for NMDARs and 5 μM KN93 for CaMKII and 25 μM […] for exocytosis) were added to cLTP stimulation buffer and cLTP incubation buffer. To quantify the fluorescence intensity in spines, the average signal intensity of ROIs set on dendritic spines or dendritic shafts was calculated by ZEN blue software after subtracting background fluorescence. The fold change value was calculated using the following equation: (fluorescence intensity of “after cLTP” images)/(fluorescence intensity of “basal state” images).
To label endogenous AMPARs, 10 μM CAM2(TCO) in the culture medium was gently added to the hippocampal neurons on a glass-bottom dish to a final concentration of 2 μM CAM2(TCO). The cells were incubated for 2 hours at 37°C. In the second step, the culture medium was removed, and the cells were treated with 100 nM Tz(ST647) for 5 min in Hepes-based ACSF at room temperature. To quench excess Tz(ST647), 1 μM TCO-OH in Hepes-based ACSF was added. Then, the cells were treated with 100 nM PFQX1(AF488). Imaging was performed with confocal microscopy.

AMPARs [2] = experiment: Staining of AMPARs in acute cerebellar slices; type: binding, mouse; details: 10 µM NBQX with 30 nM PFQX1(AF488), 5 min; molecular layer
Experimental: following secondary antibodies were used: donkey anti-mouse CF568 conjugated (Sigma, […]
1:1,000) and anti-rabbit Alexa Fluor Plus 488 conjugated (Invitrogen, A32731, 1,000).
Imaging was performed with confocal microscopy.
With two-step labeling, the cells were labeled as described in “Two -step labeling and PFQX1(AF488)staining in cultured neurons,” followed by immunostaining.
In fig. S9A, the cells were incubated with 500 nM CellTracker Red CMPTX (Invitrogen) instead of Calcein Red AM for 30 min at 37 °C to visualize the intracellular region before the immunostaining.
Preparation and staining of cerebellar acute brain slices
C57BL/6J mice (3 weeks) were anesthetized with isoflurane, and their brains were isolated and immediately transferred to ice-cold cutting solution buffer (120 mM Choline Chloride, 3 mM KCl, 8 mM MgCl2, 1.25 mM NaH2PO4, 28 mM NaHCO3, 22 mM Glucose, and 0.5 mM Sodium ascorbate) gassed with 5% CO2 and 95% O2 and incubated for 5 min. Sagittal cerebellar slices were cut with a microslicer (Neo-linear slicer NLS-MT; DOSAKA EM) in cutting solution buffer and then incubated in ACSF […]
NaHCO3, 10 mM Glucose) gassed with 5% CO 2 and 95% O 2 at 37 °C.
Acute slices were transferred to glass bottom dishes and treated with 30 nM PFQX1(AF488) in HEPES-based ACSF for 5 min. […]
Scale bars, 500 µm. (F) Quantification of probe intensity in Ε. […]

native AMPARs = experiment: Concentration-dependent binding of PFQX1(AF488) to AMPARs in primary cultured hippocampal neurons; design: species or system mouse; details: 10 µM NBQX added after 100 nM PFQX1(AF488); cultured hippocampal neurons
Experimental: We modified the Banker’s culture method of hippocampal neurons ([59]). Glass-bottom dishes (14 mm φ, Matsunami) were coated with poly-D-lysine (Sigma-Aldrich) and washed three times with sterile dH2O. Hippocampi from 16-day-old ICR mouse embryos were aseptically dissected and digested with 0.25% (w/v) trypsin (Nacalai Tesque) for 20 min at 37°C. The cells were resuspended in Neurobasal Plus medium supplemented with 10% FBS, 1 mM GlutaMAX I (Invitrogen), penicillin (100 U/ml), and streptomycin (100 μg/ml) and filtered by Cell Strainer (100 μm, Falcon) followed by centrifugation at 1000 rpm for 5 min. The cells were resuspended in Neurobasal Plus medium supplemented with 2% of B-27 Plus Supplement, 1 mM GlutaMAX I (Invitrogen), penicillin (100 U/ml), and streptomycin (100 μg/ml) and plated at a density of 2 × 10^4 cells on glass-bottom dishes. Precultured cortical astrocytes on glass coverslips (13 mm φ) were transferred to the dishes so that astrocytes were faced to neurons. The cultures were maintained at 37°C in a 95% air and 5% CO2 humidified incubator. The culture medium was replaced every 7 days, and the neurons were used at 16 to 18 days in vitro (DIV).
Calcein Red AM (50 nM; AAT Bioquest) was added to the cultured neurons for 30 min at 37°C to visualize the intracellular region. The cells were washed with Hepes-based ACSF [25 mM Hepes (pH 7.4), 140 mM NaCl, 5 mM KCl, 1.3 mM CaCl2, 2 mM MgCl2, and 33 mM glucose], and 100 nM PFQX1(AF488) in Hepes-based ACSF was added to the dish.
For evaluating the concentration dependency of PFQX1(AF488), the cells were treated with 1 nM PFQX1(AF488). Then, PFQX1(AF488) in Hepes-based ACSF was added stepwise to the dish to a final concentration of 3, 10, 30, 100, 300, and 1000 nM. To quantify the concentration dependency after cLTP, the procedure described above was conducted after cLTP stimulation as described in the section “cLTP and quantification of cell-surface AMPARs.” The average intensity of ROIs set on spines was calculated by ZEN blue software after subtracting background fluorescence. The intensity was fitted with KaleidaGraph to calculate the equilibrium constant value using the following equation: a + (b − a)/(1 + (x/c)^d). The equilibrium constant is regarded as the Kd in this study.

GluA1–4 = experiment: Fluorescence Ca2+ assay, inhibition of glutamate-induced response in HEK293T cells transfected with GluA1-4; type: cell-based, mouse; details: 30 µM glutamate-induced Ca2+ response; GluA1–4 in HEK293T cells
Experimental: HEK293T cells transfected with Ca2+-permeable GluA1–4 (GluA1 flip(Q), GluA2flip(Q), GluA3flip(Q) (Y454A/R461G), and GluA4flip(Q)) or GluK2(Q) were seeded on the 96 well plate. The cells were loaded with 5 µM Cal-520 AM (AAT Bioquest) in the culture medium for 2 h and washed with HBS using AquaMax 2000 (Molecular devices). The imaging experiment was carried out in an HBS buffer. For the fluorescence Ca2+ imaging, PFQX-amine was pretreated to the cells for 3 min followed by the addition of 30 µM glutamate with 100 µM cyclothiazide as a desensitization inhibitor for AMPARs and 100 µM kainic acid with 100 µM BPAM344 as a desensitization inhibitor for kainate receptors.
Fluorescent intensity of Cal-520 was obtained using FlexStation3 (Molecular devices), and analyzed with SoftMax Pro 7 (Molecular devices). ΔRFU was defined as the difference between the maximum intensity value after adding glutamate and the average intensity value before adding the glutamate. ΔRFU was fitted with KaleidaGraph.
Immunostaining of cultured neurons
The cultured hippocampal neurons were fixed with cold methanol for 5 min and washed with PBS three times. Fixed cells were incubated with Blocking One Histo (Nacalai Tesque) for 10 min. The cells were washed with PBS containing 0.05% Tween 20 (PBS-T) once and incubated with primary antibodies in PBS-T containing 5% Blocking One Histo at room temperature for 2 h. […]

AMPARs [3] = biological target: AMPARs; design: method as in earlier work; details: read-out: inhibition constant (Ki) for AMPARs; cited from earlier work
[4] = test system: Halo-tag-fused GluA2 in HEK293T cells; experiment: Exocytosis assay of AMPARs in HEK293T cells (Halo-tag pulse labeling); type: cell-based; details: 25 µM, 2 h at 37 °C
Experimental: Exocytosis assay of AMPARs in HEK293T cells
HEK293T cells expressing Halo-tag-GluA2 flip(Q)-3’UTR were treated with Halo-tag ligand-Alexa488 (HTL(AF488)) for 30 min at room temperature as a first pulse. After washing with DMEM three times, the cells were incubated with 25 µM brefeldin A or DMSO for 2 h at 37 °C in a 95% air and 5% CO2 humidified incubator. Then, HTL(AF647) was added to the dishes and incubated for 15 min at room temperature as a second pulse to visualize spontaneous exocytosed AMPARs. Labeled cells were fixed with 4% PFA for 15 min. The fluorescent images were obtained using confocal […]
General materials and methods for organic synthesis
All chemical reagents and solvents were purchased from commercial sources (FUJIFILM Wako pure chemical, TCI chemical, Sigma-Aldrich, Click Chemistry Tools, BroadPharm) and were used without further purification. Thin-layer chromatography (TLC) was performed on silica gel 60 F254 precoated aluminum sheets (Merck).
Chromatographic purification was performed by flash column chromatography on silica gel 60 N (neutral, 40–50 µm, Kanto Chemical). 1H-NMR spectra were recorded in deuterated solvents on an Avance III HD 300 MHz or 500 MHz (Bruker). […] High-resolution mass spectra were measured on a Compact (Bruker) equipped with electron spray ionization (ESI). […]

## NC(CCCP(=O)(O)O)C(=O)O (stereo not drawn) [AP5]
[1]
  effect on the increase in PFQX1(AF488) fluorescence in spines after cLTP stimulation: suppressed the increase in PFQX1(AF488) fluorescence; also recorded: increase in both PFQX1(AF488) and ST647 fluorescence was not observed

## COc1ccc(S(=O)(=O)N(CCO)c2ccccc2CN(C)C/C=C/c2ccc(Cl)cc2)cc1 [KN93]
[1]
  effect on the increase in PFQX1(AF488) fluorescence in spines after cLTP stimulation: suppressed the increase in PFQX1(AF488) fluorescence

## C[C@]12N[C@H](Cc3ccccc31)c1ccccc12 [MK-801]
[1]
  effect on the increase in PFQX1(AF488) fluorescence in spines after cLTP stimulation: suppressed the increase in PFQX1(AF488) fluorescence

## NS(=O)(=O)c1cccc2c1c([N+](=O)[O-])cc1[nH]c(=O)c(=O)[nH]c12 [NBQX, 2,3-dioxo-6-nitro-1,2,3,4-tetrahydrobenzo(f)quinoxaline-7-sulfonamide, reference compound]
AMPARs [2]
  competitive inhibition of PFQX1(AF488) binding in cerebellar slices: significantly weakened
Native AMPARs
  competitive inhibition of PFQX1(AF488) binding in neurons: fluorescent signals from the puncta disappeared

## O=c1[nH]c2cc(-n3cccc3)c(C(F)(F)F)cc2[nH]c1=O [PFQX, 6-pyrrolyl-7-trifluoromethyl-quinoxaline-2,3-dione]
GluA1–4
  antagonism of AMPAR subunits: antagonized AMPARs in a subunit-nonspecific manner
AMPARs [3]
  Ki: 170 nM

## C[C@H]1CCC/C=C/[C@@H]2C[C@H](O)C[C@H]2[C@H](O)/C=C/C(=O)O1 [brefeldin A]
[1]
  effect on the increase in PFQX1(AF488) fluorescence in spines after cLTP stimulation: inhibited the fluorescent increase in PFQX1(AF488)
[4]
  effect on spontaneous exocytosis of Halo-tag-fused AMPAR to the cell surface: markedly suppressed the spontaneous exocytosis

Source: publication PMC12143348, “Rapid and reversible fluorescent probe enables repeated snapshot imaging of AMPA receptors during synaptic plasticity” (Science Advances, 2025)
